This note sets out measurements from US20240083857A1, “2-Methyl-Quinazolines” (Bayer Pharma Aktiengesellschaft, priority 2017, published 2024).

Assay [1] addresses K-Ras^G12C : hSOS1 interaction (Homo sapiens, UniProt Q07889). The experiment in a line: Biochemical assay 1: K-Ras^G12C interaction assay with hSOS1 (HTRF). In kind it is binding. The conditions noted are these: for IC50: E-notation values, unit inferred, read-out: Assay 1 (KRAS-SOS interaction) IC50. In general terms: In TR-FRET formats the signal depends on donor and acceptor labels being close together.

The target of assay [2] is human SOS1 (loading of human K-Ras^G12C-GDP with fluorescent GTP-analog) (Homo sapiens, UniProt Q07889). The experiment in a line: Biochemical assay 3: K-Ras^G12C activation assay by hSOS1 (HTRF). The settings on record: for IC50: E-notation values, unit inferred, read-out: Assay 3 (KRAS-Activation) IC50.

What is called IC50 is the concentration that gives 50% inhibition. For the molecule `Cc1nc(NC(C)c2ccc(-c3ccccc3CN(C)C)s2)c2cc(N3CCN(C)CC3)ccc2n1` (centres unmarked) [Example 417, N-[1-(5-{2-[(dimethylamino)methyl]phenyl}thiophen-2-yl)ethyl]-2-methyl-6-(4-methylpiperazin-1-yl)quinazolin-4-amine], the IC50 in assay [1] is 45.5 nM; in assay [2], 35.3 nM.

With `COC(=O)c1ccc2nc(C)nc(N[C@H](C)c3cccc(Cl)c3)c2c1` [Example 371, methyl 4-{[(1R)-1-(3-chlorophenyl)ethyl]amino}-2-methylquinazoline-6-carboxylate], the IC50 is 1890 nM in assay [1] and 3350 nM in assay [2].

With `Cc1nc(NC(C)c2ccc(-c3ccccc3CN(C)C)s2)c2cc(NCCN3CCOCC3)ccc2n1` (centres unmarked) [Example 433, N4-[1-(5-{2-[(dimethylamino)methyl]phenyl}-2-thienyl)ethyl]-2-methyl-N6-[2-(morpholin-4-yl)ethyl]quinazoline-4,6-diamine], the IC50 was 77.1 nM in assay [1] and 76.9 nM in assay [2].

`COc1cc2nc(C)nc(NC(C)c3ccc(-c4ccccc4C(O)c4ccccc4)s3)c2cc1OC` (centres unmarked) [Example 374, [2-(5-{1-[(6,7-dimethoxy-2-methylquinazolin-4-yl)amino]ethyl}thiophen-2-yl)-phenyl](phenyl)methanol]: the figures for the IC50 in assay [1] and in assay [2] were 1600 nM and 6500 nM, respectively.

For the molecule `COc1cc2nc(C)nc(NC(C)c3cc(Cl)c(-c4ccccc4CN)s3)c2cc1OC` (centres unmarked) [Example 430, N-[1-{5-[2-(aminomethyl)phenyl]-4-chlorothiophen-2-yl}ethyl]-6,7-dimethoxy-2-methylquinazolin-4-amine], the IC50 in assay [1] was found to be 594 nM; in assay [2] it was 584 nM.

In the case of `COc1cc(C)c2nc(C)nc(N[C@H](C)c3cccc(Cl)c3)c2c1` [Example 396, N-[(1R)-1-(3-chlorophenyl)ethyl]-6-methoxy-2,8-dimethylquinazolin-4-amine], the values for the IC50 in assay [1] and in assay [2] were 2240 nM and 3130 nM, respectively.

Turning to `COc1cc2nc(C)nc(NC(C)c3sc(-c4ccccc4CN)cc3Cl)c2cc1OC` (centres unmarked) [Example 437, N-[1-{5-[2-(aminomethyl)phenyl]-3-chlorothiophen-2-yl}ethyl]-6,7-dimethoxy-2-methylquinazolin-4-amine], the results for the IC50 in assay [1] and in assay [2] were 145 nM and 160 nM, respectively.

As for `Cc1nc(NC(C)c2ccc(-c3ccccc3CN(C)C)s2)c2cc(NS(C)(=O)=O)ccc2n1` (centres unmarked) [Example 438, N-(4-{[1-(5-{2-[(dimethylamino)methyl]phenyl}thiophen-2-yl)ethyl]amino}-2-methylquinazolin-6-yl)methanesulfonamide], the IC50 in assay [1] turned out to be 90.2 nM; in assay [2], 116 nM.

Consider `Cc1nc(NC(C)c2ccc(Br)s2)c2cc(N3CCN(C)C(=O)C3)ccc2n1` (centres unmarked) [Example 434, 4-(4-{[1-(5-bromothiophen-2-yl)ethyl]amino}-2-methylquinazolin-6-yl)-1-methylpiperazin-2-one], for which the IC50 in assay [1] worked out at 2840 nM; in assay [2] it was 2810 nM.

As to `COc1cc2nc(C)nc(NC(C)c3ccc(-c4ccc(C)cc4CN(C)C)s3)c2cc1OC` (centres unmarked) [Example 442, N-[1-(5-{2-[(dimethylamino)methyl]-4-methylphenyl}thiophen-2-yl)ethyl]-6,7-dimethoxy-2-methylquinazolin-4-amine], the IC50 was determined as 45.3 nM in assay [1] and 45.1 nM in assay [2].

With `COc1cc2nc(C)nc(NC(C)c3ccc(-c4ccccc4CN(C)C)s3)c2cc1OC` (single isomer, unassigned) [Example 391, N-[1-(5-{2-[(dimethylamino)methyl]phenyl}thiophen-2-yl)ethyl]-6,7-dimethoxy-2-methylquinazolin-4-amine], the IC50 stood at 15.5 nM in assay [1] and 37.9 nM in assay [2].

In the case of `COc1cc2nc(C)nc(NC(C)c3cc(C)c(-c4ccccc4CN(C)CCO)s3)c2cc1OC` (centres unmarked) [Example 401, 2-{[2-(5-{1-[(6,7-dimethoxy-2-methylquinazolin-4-yl)amino]ethyl}-3-methyl-2-thienyl)benzyl](methyl)amino}ethanol], the IC50 came out at 76.3 nM in assay [1] and 82.3 nM in assay [2].

Take `COc1cc2nc(C)nc(N[C@H](C)c3cccc(-c4ccnc(O)c4)c3)c2cc1OC` [Example 388, 4-(3-{(1R)-1-[(6,7-dimethoxy-2-methylquinazolin-4-yl)amino]ethyl}phenyl)pyridin-2-ol]: the IC50 in assay [1] amounted to 205 nM; in assay [2], 757 nM.

For the molecule `Cc1nc(N[C@H](C)c2cccc(Cl)c2)c2cc(C3CC3)ccc2n1` [Example 407, N-[(1R)-1-(3-chlorophenyl)ethyl]-6-cyclopropyl-2-methylquinazolin-4-amine], the IC50 in assay [1] came out at 1250 nM; in assay [2], 2140 nM.

Take `COc1cc2nc(C)nc(NC(C)c3ccc(-c4cccc(Cl)c4CN)s3)c2cc1OC` (centres unmarked) [Example 397, N-[1-{5-[2-(aminomethyl)-3-chlorophenyl]thiophen-2-yl}ethyl]-6,7-dimethoxy-2-methylquinazolin-4-amine]: the IC50 in assay [1] worked out at 297 nM; in assay [2], 249 nM.

Consider `COC(=O)C(C)(C)c1ccccc1-c1ccc(C(C)Nc2nc(C)nc3cc(OC)c(OC)cc23)s1` (centres unmarked) [Example 436, methyl 2-[2-(5-{1-[(6,7-dimethoxy-2-methylquinazolin-4-yl)amino]ethyl}thiophen-2-yl)phenyl]-2-methylpropanoate], for which the IC50 in assay [1] was found to be 2390 nM; in assay [2], 1770 nM.

Turning to `Cc1nc(NC(C)c2ccc(Br)s2)c2cc(N3CCN(Cc4ccccc4)C(=O)C3)ccc2n1` (centres unmarked) [Example 441, 1-benzyl-4-(4-{[1-(5-bromothiophen-2-yl)ethyl]amino}-2-methylquinazolin-6-yl)piperazin-2-one], the IC50 in assay [1] turned out to be 16100 nM; in assay [2], 15100 nM.

As for `COc1cc2nc(C)nc(NC(C)c3ccc(-c4ccccc4C(C)(C)N)s3)c2cc1OC` (centres unmarked) [Example 455, N-[1-{5-[2-(2-aminopropan-2-yl)phenyl]thiophen-2-yl}ethyl]-6,7-dimethoxy-2-methylquinazolin-4-amine], the results for the IC50 in assay [1] and in assay [2] were 397 nM and 769 nM, respectively.

Consider `COCC(=O)NCc1cc(F)ccc1-c1ccc(C(C)Nc2nc(C)nc3cc(OC)c(OC)cc23)s1` (centres unmarked) [Example 383, N-[2-(5-{1-[(6,7-dimethoxy-2-methylquinazolin-4-yl)amino]ethyl}thiophen-2-yl)-5-fluorobenzyl]-2-methoxyacetamide], for which the IC50 in assay [1] was 984 nM; in assay [2], 5110 nM.

Turning to `Cc1nc(NC(C)c2ccc(-c3ccccc3CN(C)C)s2)c2cc(N3CCC(N(C)C)C3)ccc2n1` (centres unmarked) [Example 418, N-[1-(5-{2-[(dimethylamino)methyl]phenyl}thiophen-2-yl)ethyl]-6-[3-(dimethylamino)pyrrolidin-1-yl]-2-methylquinazolin-4-amine], the values for the half-maximal inhibitory concentration (IC50) in assay [1] and in assay [2] were 86.6 nM and 45.1 nM, respectively.

The term inhibition denotes the relative decrease from the control value, in per cent. Regarding `COc1cc2nc(C)nc(NC(C)c3ccc(-c4ccccc4CNc4ccccc4)s3)c2cc1OC` (centres unmarked) [Example 362, 6,7-dimethoxy-2-methyl-N-[1-(5-{2-[(phenylamino)methyl]phenyl}thiophen-2-yl)ethyl]quinazolin-4-amine], the inhibition at 20 µM came to 26% in assay [1] (read-out: Assay 1 (KRAS-SOS Interaction) activity expressed as % inhibition at 20 μM) and 30% in assay [2] (read-out: Assay 3 (KRAS-Activation by SOS no GTP) activity expressed as % inhibition at 20 μM, no GTP, at 20 μM).

`CC(=O)NCCNc1ccc2nc(C)nc(NC(C)c3ccc(-c4ccccc4CN(C)C)s3)c2c1` (centres unmarked) [Example 427, N-{2-[(4-{[1-(5-{2-[(dimethylamino)methyl]phenyl}thiophen-2-yl)ethyl]amino}-2-methylquinazolin-6-yl)amino]ethyl}acetamide]: the IC50 was determined as 58.4 nM in assay [1] and 73.9 nM in assay [2].
